Measured values published in US7517874B2 (priority 2007, dated 2009).
pEC50: −log10 of the molar value.

Legend:
[1] = molecular target: human CB1 receptor (hCB1) (Homo sapiens, UniProt P21554); assay: cell-based; assay type: cell-based; details: for +/− HCB1: agonist or inverse agonist at hCB1
Outline: (§1)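 Agonism or inverse agonism was assessed as change in intracellular cAMP in CHO-K1 cells expressing human CB1 or rat CB2 (genomic DNA, pcDNA3.1).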

[2] = molecular target: T1, rat CB2 receptor (rCB2) (Rattus norvegicus, UniProt Q9QZN9); assay: cell-based; assay type: cell-based; details: for +/− RCB2: agonist or inverse agonist at rCB2
T1 sequence (Q9QZN9 1-360): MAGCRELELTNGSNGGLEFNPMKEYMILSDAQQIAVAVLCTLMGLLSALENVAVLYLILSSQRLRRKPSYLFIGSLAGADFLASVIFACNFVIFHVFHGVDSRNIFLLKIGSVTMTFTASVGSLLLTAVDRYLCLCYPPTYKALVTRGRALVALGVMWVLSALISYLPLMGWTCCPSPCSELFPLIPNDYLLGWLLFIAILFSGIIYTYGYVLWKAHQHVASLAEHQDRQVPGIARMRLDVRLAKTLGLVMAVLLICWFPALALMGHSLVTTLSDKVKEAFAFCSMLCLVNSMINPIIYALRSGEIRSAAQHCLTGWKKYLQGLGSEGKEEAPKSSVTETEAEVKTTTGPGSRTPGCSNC
Outline: as §1

human CB1 receptor (hCB1), sequence (P21554 whole entry): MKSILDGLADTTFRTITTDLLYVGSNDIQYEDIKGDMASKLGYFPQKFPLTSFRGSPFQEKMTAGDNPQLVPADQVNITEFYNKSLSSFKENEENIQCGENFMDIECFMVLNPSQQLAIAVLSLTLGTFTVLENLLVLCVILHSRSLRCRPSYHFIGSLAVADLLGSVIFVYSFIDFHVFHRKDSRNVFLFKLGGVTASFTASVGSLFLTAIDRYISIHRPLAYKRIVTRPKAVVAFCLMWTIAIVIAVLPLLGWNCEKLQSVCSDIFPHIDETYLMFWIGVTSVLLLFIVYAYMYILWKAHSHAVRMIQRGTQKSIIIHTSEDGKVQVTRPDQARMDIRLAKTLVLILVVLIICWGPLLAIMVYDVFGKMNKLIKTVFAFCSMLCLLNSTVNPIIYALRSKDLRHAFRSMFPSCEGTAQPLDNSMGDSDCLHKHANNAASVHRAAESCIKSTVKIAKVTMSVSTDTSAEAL

| SMILES | +/− HCB1 [1] | +/− RCB2 [2] | pEC50 [1] | pEC50 [2] |
| --- | --- | --- | --- | --- |
| CNC(=O)[C@@H](NC(=O)c1nc(-c2ccc(F)cc2F)n2c1CN(C)CCC2)C(C)(C)C [Compound 355, (S)-3-(2,4-difluorophenyl)-N-(3,3-dimethyl-1-(methylamino)-1-oxobutan-2-yl)-8-methyl-6,7,8,9-tetrahydro-5H-imidazo[1,5-a][1,4]diazepine-1-carboxamide] | + | + |  |  |
| CNC(=O)[C@@H](NC(=O)c1nc(-c2cccc(Cl)c2F)n2c1CN(C)CCC2)C(C)(C)C [Compound 356, (S)-3-(3-chloro-2-fluorophenyl)-N-(3,3-dimethyl-1-(methylamino)-1-oxobutan-2-yl)-8-methyl-6,7,8,9-tetrahydro-5H-imidazo[1,5-a][1,4]diazepine-1-carboxamide] |  |  | < 5.00 | < 5.00 |
| CNC(=O)[C@@H](NC(=O)c1nc(-c2cc(Cl)c(C)cc2F)n2c1CN(C)CCC2)C(C)(C)C [Compound 357, (S)-3-(5-chloro-2-fluoro-4-methylphenyl)-N-(3,3-dimethyl-1-(methylamino)-1-oxobutan-2-yl)-8-methyl-6,7,8,9-tetrahydro-5H-imidazo[1,5-a][1,4]diazepine-1-carboxamide] |  |  | < 5.00 | < 5.00 |
| CNC(=O)[C@@H](NC(=O)c1nc(-c2ccc(OC)cc2F)n2c1CN(C)CCC2)C(C)(C)C [Compound 358] |  | − | < 5.00 |  |
| CNC(=O)[C@@H](NC(=O)c1nc(-c2cc(F)ccc2F)n2c1CN(C)CCC2)C(C)(C)C [Compound 359, (S)-3-(2,5-difluorophenyl)-N-(3,3-dimethyl-1-(methylamino)-1-oxobutan-2-yl)-8-methyl-6,7,8,9-tetrahydro-5H-imidazo[1,5-a][1,4]diazepine-1-carboxamide] |  | + | < 5.00 |  |
| CNC(=O)[C@@H](NC(=O)c1nc(-c2ccc(C)c(F)c2)n2c1CN(C)CCC2)C(C)(C)C [Compound 360, (S)-N-(3,3-dimethyl-1-(methylamino)-1-oxobutan-2-yl)-3-(3-fluoro-4-methylphenyl)-8-methyl-6,7,8,9-tetrahydro-5H-imidazo[1,5-a][1,4]diazepine-1-carboxamide] |  |  | < 5.00 | < 5.00 |
| CNC(=O)[C@@H](NC(=O)c1nc(-c2cc(Cl)ccc2F)n2c1CN(C)CCC2)C(C)(C)C [Compound 361, (S)-3-(5-chloro-2-fluorophenyl)-N-(3,3-dimethyl-1-(methylamino)-1-oxobutan-2-yl)-8-methyl-6,7,8,9-tetrahydro-5H-imidazo[1,5-a][1,4]diazepine-1-carboxamide] | + | + |  |  |
| CNC(=O)[C@@H](NC(=O)c1nc(-c2cc(C)ccc2F)n2c1CN(C)CCC2)C(C)(C)C [Compound 362, (S)-N-(3,3-dimethyl-1-(methylamino)-1-oxobutan-2-yl)-3-(2-fluoro-5-methylphenyl)-8-methyl-6,7,8,9-tetrahydro-5H-imidazo[1,5-a][1,4]diazepine-1-carboxamide] |  | + | < 5.00 |  |
| CNC(=O)[C@@H](NC(=O)c1nc(-c2cc(C(F)(F)F)ccc2F)n2c1CN(C)CCC2)C(C)(C)C [Compound 363, (S)-N-(3,3-dimethyl-1-(methylamino)-1-oxobutan-2-yl)-3-(2-fluoro-5-(trifluoromethyl)phenyl)-8-methyl-6,7,8,9-tetrahydro-5H-imidazo[1,5-a][1,4]diazepine-1-carboxamide] |  | − | < 5.00 |  |
| CNC(=O)[C@@H](NC(=O)c1nc(-c2cccc(C(F)(F)F)c2F)n2c1CN(C)CCC2)C(C)(C)C [Compound 364, (S)-N-(3,3-dimethyl-1-(methylamino)-1-oxobutan-2-yl)-3-(2-fluoro-3-(trifluoromethyl)phenyl)-8-methyl-6,7,8,9-tetrahydro-5H-imidazo[1,5-a][1,4]diazepine-1-carboxamide] |  | − | < 5.00 |  |
| CNC(=O)[C@@H](NC(=O)c1nc(-c2c(F)cccc2OC)n2c1CN(C)CCC2)C(C)(C)C [Compound 365, N-((S)-3,3-dimethyl-1-(methylamino)-1-oxobutan-2-yl)-3-(2-fluoro-6-methoxyphenyl)-8-methyl-6,7,8,9-tetrahydro-5H-imidazo[1,5-a][1,4]diazepine-1-carboxamide] |  | + | < 5.00 |  |
| CNC(=O)[C@@H](NC(=O)c1nc(-c2ccc(C)cc2Cl)n2c1CN(C)CCC2)C(C)(C)C [Compound 367, (S)-3-(2-chloro-4-methylphenyl)-N-(3,3-dimethyl-1-(methylamino)-1-oxobutan-2-yl)-8-methyl-6,7,8,9-tetrahydro-5H-imidazo[1,5-a][1,4]diazepine-1-carboxamide] |  |  | < 5.00 | < 5.00 |
| CNC(=O)[C@@H](NC(=O)c1nc(-c2ccc(C(F)(F)F)cc2F)n2c1CN(C)CCC2)C(C)(C)C [Compound 368, (S)-N-(3,3-dimethyl-1-(methylamino)-1-oxobutan-2-yl)-3-(2-fluoro-4-(trifluoromethyl)phenyl)-8-methyl-6,7,8,9-tetrahydro-5H-imidazo[1,5-a][1,4]diazepine-1-carboxamide] | + | + |  |  |
| CNC(=O)[C@@H](NC(=O)c1nc(-c2cccc(F)c2F)n2c1CN(C)CCC2)C(C)(C)C [Compound 369, (S)-3-(2,3-difluorophenyl)-N-(3,3-dimethyl-1-(methylamino)-1-oxobutan-2-yl)-8-methyl-6,7,8,9-tetrahydro-5H-imidazo[1,5-a][1,4]diazepine-1-carboxamide] |  | + | < 5.00 |  |
| CNC(=O)[C@@H](NC(=O)c1nc(-c2cc(Cl)c(F)cc2F)n2c1CN(C)CCC2)C(C)(C)C [Compound 370, (S)-3-(5-chloro-2,4-difluorophenyl)-N-(3,3-dimethyl-1-(methylamino)-1-oxobutan-2-yl)-8-methyl-6,7,8,9-tetrahydro-5H-imidazo[1,5-a][1,4]diazepine-1-carboxamide] |  | + | < 5.00 |  |
| CNC(=O)[C@@H](NC(=O)c1nc(-c2cc(F)c(F)cc2F)n2c1CN(C)CCC2)C(C)(C)C [Compound 371, (S)-N-(3,3-dimethyl-1-(methylamino)-1-oxobutan-2-yl)-8-methyl-3-(2,4,5-trifluorophenyl)-6,7,8,9-tetrahydro-5H-imidazo[1,5-a][1,4]diazepine-1-carboxamide] | + | + |  |  |
| CNC(=O)[C@@H](NC(=O)c1nc(-c2ccc(F)c(Cl)c2)n2c1CN(C)CCC2)C(C)(C)C [Compound 372, (S)-3-(3-chloro-4-fluorophenyl)-N-(3,3-dimethyl-1-(methylamino)-1-oxobutan-2-yl)-8-methyl-6,7,8,9-tetrahydro-5H-imidazo[1,5-a][1,4]diazepine-1-carboxamide] |  | + | < 5.00 |  |
| CNC(=O)[C@@H](NC(=O)c1nc(-c2ccc(Cl)c(F)c2)n2c1CN(C)CCC2)C(C)(C)C [Compound 373] |  | + | < 5.00 |  |
| CNC(=O)[C@@H](NC(=O)c1nc(-c2cc(F)c(F)c(F)c2)n2c1CN(C)CCC2)C(C)(C)C [Compound 375, (S)-N-(3,3-dimethyl-1-(methylamino)-1-oxobutan-2-yl)-8-methyl-3-(3,4,5-trifluorophenyl)-6,7,8,9-tetrahydro-5H-imidazo[1,5-a][1,4]diazepine-1-carboxamide] |  | + | < 5.00 |  |
| C/C=C/c1nc(C(=O)N[C@H](C(=O)NC)C(C)(C)C)c2n1CCCN(C)C2 [Compound 376, (S,E)-N-(3,3-dimethyl-1-(methylamino)-1-oxobutan-2-yl)-8-methyl-3-(prop-1-enyl)-6,7,8,9-tetrahydro-5H-imidazo[1,5-a][1,4]diazepine-1-carboxamide] |  | + | < 5.00 |  |
| CNC(=O)[C@@H](NC(=O)c1nc(C=C(C)C)n2c1CN(C)CCC2)C(C)(C)C [Compound 377, (S)-N-(3,3-dimethyl-1-(methylamino)-1-oxobutan-2-yl)-8-methyl-3-(2-methylprop-1-enyl)-6,7,8,9-tetrahydro-5H-imidazo[1,5-a][1,4]diazepine-1-carboxamide] |  | + | < 5.00 |  |
| CNC(=O)[C@@H](NC(=O)c1nc(-c2ccc(N3CCOCC3)cc2)n2c1CN(C)CCC2)C(C)(C)C [Compound 378, (S)-N-(3,3-dimethyl-1-(methylamino)-1-oxobutan-2-yl)-8-methyl-3-(4-morpholinophenyl)-6,7,8,9-tetrahydro-5H-imidazo[1,5-a][1,4]diazepine-1-carboxamide] |  | − | < 5.00 |  |
| CNC(=O)[C@@H](NC(=O)c1nc(-c2ccc(S(C)(=O)=O)cc2)n2c1CN(C)CCC2)C(C)(C)C [Compound 379, (S)-N-(3,3-dimethyl-1-(methylamino)-1-oxobutan-2-yl)-8-methyl-3-(4-(methylsulfonyl)phenyl)-6,7,8,9-tetrahydro-5H-imidazo[1,5-a][1,4]diazepine-1-carboxamide] |  |  | < 5.00 | < 5.00 |
| CNC(=O)[C@@H](NC(=O)c1nc(-c2ccc3ccccc3c2)n2c1CN(C)CCC2)C(C)(C)C [Compound 380, (S)-N-(3,3-dimethyl-1-(methylamino)-1-oxobutan-2-yl)-8-methyl-3-(naphthalen-2-yl)-6,7,8,9-tetrahydro-5H-imidazo[1,5-a][1,4]diazepine-1-carboxamide] |  | − | < 5.00 |  |
